ChEMBL document CHEMBL3400149, “Discovery of novel spiro 1,3,4-thiadiazolines as potent, orally bioavailable and brain penetrant KSP inhibitors” (Bioorg Med Chem, 2015)
Values belong to the compound of their own block, whether it stands above or below them. Active and inactive are the calls of the source. The calls are words filed in the database; no cut-off is given here.

How the values were obtained:
[1] = AUC in Sprague-Dawley rat at 1 mg/kg, iv; assay type: ADME, organism-based; parameters: dose 1 mg/kg, route intravenous; details: plasma
[2] = Cmax in Sprague-Dawley rat at 50 mg/kg, po; assay type: ADME, organism-based; parameters: dose 50 mg/kg, route oral; details: in vivo
[3] = Cmax in beagle dog at 5 mg/kg, po; assay type: ADME, organism-based, Canis lupus familiaris; parameters: dose 5 mg/kg, route oral; details: in vivo
[4] = Clearance in CD1 mouse at 5 mg/kg, iv; assay type: ADME, organism-based; parameters: dose 5 mg/kg, route intravenous; details: in vivo
[5] = Clearance in Sprague-Dawley rat at 1 mg/kg, iv; assay type: ADME, organism-based; parameters: dose 1 mg/kg, route intravenous; details: in vivo
[6] = Oral bioavailability in Sprague-Dawley rat at 50 mg/kg; assay type: ADME, organism-based; details: in vivo
[7] = Oral bioavailability in CD1 mouse at 5 mg/kg; assay type: ADME, organism-based; details: in vivo
[8] = AUC in CD1 mouse at 5 mg/kg, po; assay type: ADME, organism-based; parameters: dose 5 mg/kg, route oral; details: plasma
[9] = Clearance in beagle dog at 1 mg/kg, iv; assay type: ADME, organism-based, Canis lupus familiaris; parameters: dose 1 mg/kg, route intravenous; details: in vivo
[10] = AUC in Sprague-Dawley rat at 50 mg/kg, po; assay type: ADME, organism-based; parameters: dose 50 mg/kg, route oral; details: plasma
[11] = Oral bioavailability in beagle dog at 5 mg/kg; assay type: ADME, organism-based, Canis lupus familiaris; details: in vivo
[12] = molecular target: T1, Kinesin-like protein KIF11 (Homo sapiens, UniProt P52732); assay: Inhibition of KSP in human HCT116 cells assessed as phos-histone H3 level by immunofluorescent assay; assay type: cell-based, HCT-116
T1 sequence (P52732 whole entry): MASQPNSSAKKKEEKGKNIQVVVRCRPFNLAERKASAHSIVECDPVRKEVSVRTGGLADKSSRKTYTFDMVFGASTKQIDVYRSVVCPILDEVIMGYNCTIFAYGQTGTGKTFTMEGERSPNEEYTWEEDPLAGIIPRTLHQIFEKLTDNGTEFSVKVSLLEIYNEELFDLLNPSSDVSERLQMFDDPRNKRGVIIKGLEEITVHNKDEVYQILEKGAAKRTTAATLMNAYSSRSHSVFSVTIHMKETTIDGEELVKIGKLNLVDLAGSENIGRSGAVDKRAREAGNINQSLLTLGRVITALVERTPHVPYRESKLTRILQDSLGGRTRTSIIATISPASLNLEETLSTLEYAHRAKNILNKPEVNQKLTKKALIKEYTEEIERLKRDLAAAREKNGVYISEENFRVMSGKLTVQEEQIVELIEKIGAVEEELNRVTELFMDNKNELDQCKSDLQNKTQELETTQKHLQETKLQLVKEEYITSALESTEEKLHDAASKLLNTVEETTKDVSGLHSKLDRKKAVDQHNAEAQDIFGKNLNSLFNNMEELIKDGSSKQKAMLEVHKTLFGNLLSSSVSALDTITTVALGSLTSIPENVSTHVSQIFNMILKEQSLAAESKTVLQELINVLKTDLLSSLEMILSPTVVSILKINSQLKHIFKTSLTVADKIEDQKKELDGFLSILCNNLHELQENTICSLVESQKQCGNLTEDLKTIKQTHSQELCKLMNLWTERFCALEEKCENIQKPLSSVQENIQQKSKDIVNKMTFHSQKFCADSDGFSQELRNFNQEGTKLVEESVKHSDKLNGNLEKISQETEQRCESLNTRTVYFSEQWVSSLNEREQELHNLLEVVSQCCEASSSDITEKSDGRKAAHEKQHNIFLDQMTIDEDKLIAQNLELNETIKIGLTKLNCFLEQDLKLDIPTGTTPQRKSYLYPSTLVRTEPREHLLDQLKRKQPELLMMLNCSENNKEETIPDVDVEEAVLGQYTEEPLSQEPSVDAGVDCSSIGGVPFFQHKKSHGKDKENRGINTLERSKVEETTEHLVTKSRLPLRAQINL

HCT-116 [13] = assay: Induction of mitotic arrest in human HCT116 cells assessed as increase in 4N DNA content at 1.6 nM after 16 hrs by propidium iodine staining based FACS analysis; assay type: functional
HCT-116 [14] = assay: Induction of mitotic arrest in human HCT116 cells assessed as increase in […] spindle formation at 6.25 nM after 16 hrs by propidium iodine staining based FACS analysis; assay type: functional, cell-based
HCT-116 [15] = assay: Induction of mitotic arrest in human HCT116 cells assessed as increase mitosis at 1.6 nM after 24 hrs by propidium iodine staining based FACS analysis; assay type: functional, cell-based
[16] = Volume of distribution at steady state in beagle dog at 1 mg/kg, iv; assay type: ADME, organism-based, Canis lupus familiaris; parameters: dose 1 mg/kg, route intravenous; details: in vivo, read-out: Vdss
[17] = Volume of distribution at steady state in Sprague-Dawley rat at 1 mg/kg, iv; assay type: ADME, organism-based; parameters: dose 1 mg/kg, route intravenous; details: in vivo, read-out: Vdss
[18] = AUC in CD1 mouse at 5 mg/kg, iv; assay type: ADME, organism-based; parameters: dose 5 mg/kg, route intravenous; details: plasma
[19] = Volume of distribution at steady state in CD1 mouse at 5 mg/kg, iv; assay type: ADME, organism-based; parameters: dose 5 mg/kg, route intravenous; details: in vivo, read-out: Vdss
[20] = Half life in CD1 mouse at 5 mg/kg, iv; assay type: ADME, organism-based; parameters: dose 5 mg/kg, route intravenous; details: in vivo
[21] = AUC in beagle dog at 5 mg/kg, po; assay type: ADME, organism-based, Canis lupus familiaris; parameters: dose 5 mg/kg, route oral; details: plasma
[22] = Cmax in CD1 mouse at 5 mg/kg, po; assay type: ADME, organism-based; parameters: dose 5 mg/kg, route oral; details: in vivo
[23] = Retention time of the compound; assay type: physicochemical
[24] = Half life in beagle dog at 1 mg/kg, iv; assay type: ADME, organism-based, Canis lupus familiaris; parameters: dose 1 mg/kg, route intravenous; details: in vivo
[25] = AUC in beagle dog at 1 mg/kg, iv; assay type: ADME, organism-based, Canis lupus familiaris; parameters: dose 1 mg/kg, route intravenous; details: plasma
[26] = Half life in Sprague-Dawley rat at 1 mg/kg, iv; assay type: ADME, organism-based; parameters: dose 1 mg/kg, route intravenous; details: in vivo
[27] = Cmax in CD1 mouse at 10 mg/kg, po; assay type: ADME, organism-based; parameters: dose 10 mg/kg, route oral; details: in vivo
[28] = Cmax in Sprague-Dawley rat at 10 mg/kg, po; assay type: ADME, organism-based; parameters: dose 10 mg/kg, route oral; details: in vivo
[29] = Oral bioavailability in Sprague-Dawley rat at 10 mg/kg; assay type: ADME, organism-based; details: in vivo
[30] = Oral bioavailability in CD1 mouse at 10 mg/kg; assay type: ADME, organism-based; details: in vivo
[31] = AUC in CD1 mouse at 10 mg/kg, po; assay type: ADME, organism-based; parameters: dose 10 mg/kg, route oral; details: plasma
[32] = AUC in Sprague-Dawley rat at 10 mg/kg, po; assay type: ADME, organism-based; parameters: dose 10 mg/kg, route oral; details: plasma
[33] = Cmax in Sprague-Dawley rat at 5 mg/kg, po; assay type: ADME, organism-based; parameters: dose 5 mg/kg, route oral; details: in vivo
[34] = AUC in Sprague-Dawley rat at 5 mg/kg, po; assay type: ADME, organism-based; parameters: dose 5 mg/kg, route oral; details: plasma
[35] = Oral bioavailability in Sprague-Dawley rat at 5 mg/kg; assay type: ADME, organism-based; details: in vivo

AUC [1]: 0.8 µM·h
Cmax [2]: 600 nM
Cmax [3]: 300 nM
clearance [4]: 90 mL/min/kg
clearance [5]: 46 mL/min/kg
bioavailability [6]: 9%
bioavailability [7]: 12%
AUC [8]: 0.3 µM·h
clearance [9]: 13.7 mL/min/kg
AUC [10]: 3.6 µM·h
bioavailability [11]: 9%
EC50 [12]: 0.002 µM
Vd [16]: 3.9 L/kg
Vd [17]: 8.6 L/kg
AUC [18]: 2.3 µM·h
Vd [19]: 6.4 L/kg
half-life [20]: 1.8 h
AUC [21]: 1.4 µM·h
Cmax [22]: 100 nM
Retention_time [23]: 4.08 min
half-life [24]: 3.9 h
AUC [25]: 3 µM·h
half-life [26]: 2 h
SMILES: CC(=O)N1N=C(c2cc(F)ccc2F)S[C@@]12c1ccccc1OC[C@H]2CCN
Activity (HCT-116 [13]): 70%
Activity (HCT-116 [14]): Active
Activity (HCT-116 [15]): Active

EC50 [12]: 0.005 µM
SMILES: CC(=O)N1N=C(c2cc(F)ccc2F)SC12c1ccccc1OCC2CCN (racemic)

EC50 [12]: > 0.5 µM
SMILES: CC(C)C(=O)N1N=C(c2cc(F)ccc2F)SC12CCOc1ccccc12 (centres undefined)

EC50 [12]: > 1 µM
SMILES: CC(=O)N1N=C(c2cc(F)ccc2F)SC12CCCOc1ccccc12 (centres undefined)

EC50 [12]: > 0.5 µM
SMILES: NCCC(=O)N1N=C(c2cc(F)ccc2F)SC12CCOc1ccccc12 (centres undefined)

AUC [1]: 0.37 µM·h
Cmax [27]: 770 nM
clearance [4]: 76 mL/min/kg
clearance [5]: 109 mL/min/kg
Cmax [28]: 17 nM
bioavailability [29]: 8%
bioavailability [30]: 64%
EC50 [12]: 0.001 µM
AUC [18]: 2.6 µM·h
AUC [31]: 3.3 µM·h
AUC [32]: 0.15 µM·h
SMILES: CC(=O)N1N=C(c2cc(F)ccc2F)S[C@@]12c1cc(F)ccc1OC[C@H]2CCN

EC50 [12]: 0.452 µM
SMILES: CCC(=O)N1N=C(c2cc(F)ccc2F)SC12CCOc1ccccc12 (centres undefined)

AUC [1]: 0.8 µM·h
Cmax [27]: 1200 nM
Cmax [3]: 200 nM
clearance [4]: 29 mL/min/kg
clearance [5]: 50 mL/min/kg
Cmax [33]: 180 nM
bioavailability [30]: 100%
clearance [9]: 20 mL/min/kg
bioavailability [11]: 18%
EC50 [12]: 0.005 µM
AUC [18]: 6.5 µM·h
AUC [34]: 1.7 µM·h
AUC [31]: 13.4 µM·h
AUC [21]: 1.7 µM·h
bioavailability [35]: 44%
AUC [25]: 1.9 µM·h
SMILES: CC(=O)N1N=C(c2cc(F)ccc2F)S[C@@]12c1cc(F)cc(F)c1OC[C@H]2CCN

EC50 [12]: 0.179 µM
SMILES: CC(=O)N1N=C(c2cc(F)ccc2F)SC12CCNc1ccccc12 (centres undefined)

EC50 [12]: 0.367 µM
SMILES: CNCCCC(=O)N1N=C(c2cc(F)ccc2F)SC12CCOc1ccccc12 (centres undefined)

EC50 [12]: 0.205 µM
Retention_time [23]: 2.15 min
SMILES: CC(=O)N1N=C(c2cc(F)ccc2F)S[C@]12c1ccccc1OC[C@H]2CCN

EC50 [12]: 3.31 µM
SMILES: CC(=O)N1N=C(c2cc(F)ccc2F)SC12CCSc1ccccc12 (centres undefined)

Cmax [27]: 430 nM
clearance [4]: 136 mL/min/kg
bioavailability [30]: 46%
EC50 [12]: 0.005 µM
AUC [18]: 1.5 µM·h
AUC [31]: 1.3 µM·h
SMILES: CC(=O)N1N=C(c2cc(F)ccc2F)S[C@@]12c1cccc(F)c1OC[C@H]2CCN
